Data as given in patent publication US4313943A, “7-Chloro-2,3-dihydro-5-phenyl-1-propargyl-1H-1,4-benzodiazepine-2-one, and a pharmaceutical composition thereof” (priority 1972, dated 1982).
Where “and” joins values, the source holds several entries; their conditions need not be identical. Equal values may be shown once. Entries after “also recorded” stand apart in the source; their conditions may differ.

Tests used:
Assay type in all cases: in vivo
[1] = tested on: posterior amygdaloid complex; assay: Amygdaloid after-discharge (stimulation of posterior amygdaloid complex); conditions: 7.5 mg/kg intragastric; for Duration of Amygdaloid After-Discharge: individual animals
Protocol: The test animals for this study were also prepared according to the technique described by Monnier and Gangloff (infra B, page 30) and the animals were kept in restraint cages in a relatively soundproof room.
The activity of test compounds 1 and 4 was assessed in identical groups of test animals for each compound, with identical numbers of animals for hippocampal after-discharges and for amygdaloid after-discharges. A dose of 7.5 mg/kg of each test compound was adminstered by the intragastric route. In each animal, after-discharges were triggered every 45 minutes after the administration of a test compound.
The stimulation consisted of a series of waves with a duration of 3 m sec., delivered at a frequency of 40 c/sec., with 5 seconds as the total duration of the stimulation. The shocks were delivered by a Neurovar neurostimulator (Alvar Electronic), coupled to a CRC cathode oscilloscope (type OC 343). Cerebral electric activity was recorded by REEGA MINI HUIT electroencephalograph (Alvar Electronic).

[2] = Postural tonus in restrained animals; conditions: for reduction in postural tonus: more pronounced effect of compound 4 especially at 30 mg/kg
Text: The final observations were concerned with the influence of the test compounds on postural tonus. Evaluationg postural tonus in the animals kept in restraint cages was somewhat difficult. It was possible to judge this aspect by pulling the hind quarters of the animals out of the cage and observing whether the animals was capable of returning spontaneously to its position inside the cage, which control animals were able to do immediately.

[3] = Electrogenesis of various subcortical centers; conditions: for EEG activity of the hippocampus: in vivo
Protocol: This study was conducted with test animals weighing between 2.6 and 2.8 kg, following the stereotaxic method of Monnier and Gangloff (Atlas et techniques stereotaxique pour le cerveau du lopin eveille, 1961, Elsevier Pub. Co.), permitting the stimulation of certain subcortical structures as well as a simultaneous detection and recording of their electrical activities, which were compared to that of reference cortical electrodes. In this study, the subcortical centers considered were the caudate nucleus, the dorsal hippocampus, the lateral thalamus, the mesenephalic reticular formation, and the hypothalamic reticular formation. Test compounds 1 and 4 were administered by the intragastric route with an identical dose of 7.5 mg/kg.
Spontaneous activity in the subcortical centers of the unanesthetized animals is characterized by desynchronized activity consisting of high amplitude and relatively slow rhythms (4 to 5 c/sec.), alternating with low amplitude rapid rhythms (12 to 13 c/sec.). Tracings from the hippocampus and caudate nucleus sometimes takes the form of bursts, which is less commonly the case from the thalamus. These may occur at the same time as bursts of rapid spikes arising from the frontal cortex. During periods of arousal, this desynchronized activity is followed by a synchronized theta rhythm (7 to 8 c/sec.) from the hippocampus and caudate nucleus and from the median thalamus, whereas the cortical and reticular electrical activities are transformed into ultra-rapid and low voltage rhythms (30μ volts).

Structure (SMILES)	effect on amygdaloid after-discharge [1]	Duration of Amygdaloid After-Discharge ([1]; 45 Mins.)	Duration of Amygdaloid After-Discharge ([1]; 90 Mins.)	Duration of Amygdaloid After-Discharge ([1]; 135 Mins.)	Duration of Amygdaloid After-Discharge ([1]; 180 Mins.)	Duration of Amygdaloid After-Discharge ([1]; 225 Mins.)	Duration of Amygdaloid After-Discharge ([1]; 270 Mins.)	reduction in postural tonus [2]	caudate nucleus bursts of rapid spikes, time of maximum periodicity ([3]; 7.5 mg/kg intragastric) [min]	caudate nucleus spikes ([3]; 7.5 mg/kg intragastric)	thalamic rhythms ([3]; 7.5 mg/kg intragastric)	EEG activity of the hippocampus [3]	animals with no attempt to resume previous posture ([2]; 30 mg/kg, at 21/2 hours)	duration of slowing of mesencephalic and hypothalamic reticular formation activity ([3]; 7.5 mg/kg intragastric) [min]
C#CCN1C(=O)CN=C(c2ccccc2)c2cc(Cl)ccc21 [Compound 1, 7-chloro-2,3-dihydro-5-phenyl-1-propargyl-1H-1,4-benzodiazepin-2-one]	lasting inhibitory effect; also recorded: slightly more pronounced	15 s and 0 s and 35 s and 22 s	17 s and 0 s and 27 s	46 s and 0 s and 37 s	17 s and 0 s and 34 s	42 s and 46 s and 0 s and 35 s	45 s and 62 s and 0 s and 30 s	slight reduction in the tonus	45	definite effect of compound 1 on the caudate nucleus	greater amplitude and lower frequency	slow and of high amplitude; also recorded: increase the amplitude of these activities and also reduce their frequency		
C#CCN1C(=O)CN=C(c2ccccc2Cl)c2cc(Cl)ccc21 [Compound 4, 7-chloro-2,3-dihydro-5-(2-chlorophenyl)-1-propargyl-1,H-1,4-benzodiazepine-2-one]	lasting inhibitory effect	29 s and 43 s and 30 s and 35 s	32 s and 46 s and 33 s and 40 s and 16 s	35 s and 27 s and 40 s and 26 s	33 s and 29 s and 48 s	37 s and 35 s and 34 s and 41 s	38 s and 42 s and 37 s and 39 s and 50 s	slightly more pronounced effect		less distinguishable	greater amplitude and lower frequency	slow and of high amplitude; also recorded: increase the amplitude of these activities and also reduce their frequency	one animal out of every three	≥ 135
